Bounds are passed on as bounds.

Experimental findings from article PMC7004151, “Synthesis and Structure‐Activity Relationships of N‐(4‐Benzamidino)‐Oxazolidinones: Potent and Selective Inhibitors of Kallikrein‐Related Peptidase 6” (Chemmedchem, 2019) are described below.

One data set concerns the target T1, KLK7 (Homo sapiens, UniProt P49862).
T1 construct: purchased 2B scientific
As to the kind of experiment: KLK7 enzyme inhibition assay. The data set is classed as biochemical. To be noted: read-out: KLK7 pIC50 (converted). The protocol:
Enzyme inhibition assays: All chemicals were purchased from Sigma Aldrich (Gillingham, UK) unless otherwise stated. All experiments were conducted in 384 well black, low volume microplates (Greiner 784076) with a final volume of 20 μL and compounds were dispensed into assay plates using an ECHO 550 acoustic dispenser (Labcyte). KLK6 (5 nM) (prepared as in ref. 21) was incubated with test compounds for 30 min at room temperature in assay buffer (50 mM Tris, pH 7.5, 150 mM NaCl, 1 mM EDTA, 0.05 % tween 20, 0.1 % bovine serum albumin (BSA), 1 mM dithiothreitol (DTT)) before the reaction was started by addition of 20 μM Boc‐Phe‐Ser‐Arg‐AMC substrate (Bachem). Fluorescence intensity was read at ex/em 355/460 following incubation for 2 h in the dark at room temperature.
Assays using KLK7 and KLK8 (2B scientific) were conducted in the same manner as for KLK6 with the following exceptions. Both KLK7 and KLK8 required activation before assaying. KLK7 was combined with an equal volume of 20 μg/ml thermolysin (R&D systems) in activation buffer (50 mM Tris, pH 7.5, 10 mM CaCl2, 150 mM NaCl and 0.05 % Brij‐L23) and incubated at 37 °C for 2 h, the reaction was stopped with the addition of 100 mM EDTA in stop solution (50 mM Tris, 150 mM NaCl, pH 8.5). KLK8 was combined with an equal volume of 0.4 mU/mL lysyl endopeptidase (Alpha laboratories) in activation buffer (50 mM Tris, pH 8.0) and incubated at 37 °C for 30 min. Activated KLK7 (40 nM) and KLK8 (25 nM) were assayed with 40 μM Mca‐RPKPVE‐Nval‐WRK(Dnp)‐NH2 fluorogenic MMP substrate (R&D systems) and 25 μM Boc‐V‐P‐R‐AMC substrate (R&D systems), respectively.

The target of the next data set is T2, CYP1A2 (Homo sapiens, UniProt P05177).
T2 construct: purchased Cypex; host or cells: bacterial membranes (bactosomes)
T2 sequence (P05177 1-516): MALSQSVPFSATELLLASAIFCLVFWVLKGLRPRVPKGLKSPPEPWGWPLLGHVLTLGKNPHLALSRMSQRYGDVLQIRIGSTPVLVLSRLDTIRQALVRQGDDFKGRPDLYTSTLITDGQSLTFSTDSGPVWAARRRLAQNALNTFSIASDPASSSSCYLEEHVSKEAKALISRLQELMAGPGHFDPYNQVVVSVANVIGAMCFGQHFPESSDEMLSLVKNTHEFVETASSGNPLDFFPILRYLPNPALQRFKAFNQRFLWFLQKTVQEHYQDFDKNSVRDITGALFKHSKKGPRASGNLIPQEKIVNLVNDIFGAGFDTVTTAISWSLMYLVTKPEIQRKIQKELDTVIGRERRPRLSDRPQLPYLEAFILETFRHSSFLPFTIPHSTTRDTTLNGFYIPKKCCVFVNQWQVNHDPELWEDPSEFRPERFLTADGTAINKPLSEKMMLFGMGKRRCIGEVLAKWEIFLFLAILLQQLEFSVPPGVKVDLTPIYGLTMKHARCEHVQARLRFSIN
As to the kind of experiment: Fluorescence-based CYP inhibition, CYP bactosomes. The data set is classed as in vitro ADME. To be noted: read-out: CYP Inhibition IC50 1A2. As to the method: (§1) Fluorescence-based CYP Inhibition using recombinantly expressed CYP bactosomes: Fluorescence CYP inhibition studies were conducted at 37 °C in 96-well, flat-bottom, clear polystyrene plates. Incubation mixtures containing […] bactosomes (1000 pmol/mL, 10 mg/mL Cypex TM), fluorigenic substrate (Cypex TM) and 50 mM potassium phosphate buffer (pH 7.4) were prepared at the following final concentrations: CYP1A2, 5 pmol/mL+0.5 μM Ethoxyresorufin (ER); […] Bactosome control protein was included in reactions to give a final concentration of 0.025 mg/mL. Reaction times were verified to be within the limits of kinetics linearity. For each isoform, 220 μL of incubation mix was added to each well of a 96-well, flat-bottom, clear polystyrene plate. […] Reactions were initiated by the addition of 25 μL regenerating cofactor solution (23 mM Glucose-6-Phosphate, 2.2 mM NADP, 6 Units per ml Glucose-6-Phosphate Dehydrogenase (from Baker's yeast S. cerevisiae) in 2 % w/v NaHCO3, Sigma) and subsequent production of fluorescence metabolite measured at 1 min intervals over a 10 min period using a BMG Optima fluorescence detector (ER: Exc 530 nm, Em 590 nm, MFC: Exc 410 nm, Em 530 nm, CEC: Exc 410 nm, Em 530 nm, MAMC: Exc 405 nm, Em 460 nm, DEF: Exc 405 nm, Em 560 nm, 7BQ: Exc 485 nm, Em 530 nm). Fluorescence responses were adjusted to a percentage of uninhibited control before plotting against compound concentration and deriving the IC50 by fitting to a 4 parameter logistic regression model.

The next data set deals with T3, CYP2C19 (Homo sapiens, UniProt P33261).
T3 construct: purchased Cypex; host or cells: bacterial membranes (bactosomes)
T3 sequence (P33261 whole entry): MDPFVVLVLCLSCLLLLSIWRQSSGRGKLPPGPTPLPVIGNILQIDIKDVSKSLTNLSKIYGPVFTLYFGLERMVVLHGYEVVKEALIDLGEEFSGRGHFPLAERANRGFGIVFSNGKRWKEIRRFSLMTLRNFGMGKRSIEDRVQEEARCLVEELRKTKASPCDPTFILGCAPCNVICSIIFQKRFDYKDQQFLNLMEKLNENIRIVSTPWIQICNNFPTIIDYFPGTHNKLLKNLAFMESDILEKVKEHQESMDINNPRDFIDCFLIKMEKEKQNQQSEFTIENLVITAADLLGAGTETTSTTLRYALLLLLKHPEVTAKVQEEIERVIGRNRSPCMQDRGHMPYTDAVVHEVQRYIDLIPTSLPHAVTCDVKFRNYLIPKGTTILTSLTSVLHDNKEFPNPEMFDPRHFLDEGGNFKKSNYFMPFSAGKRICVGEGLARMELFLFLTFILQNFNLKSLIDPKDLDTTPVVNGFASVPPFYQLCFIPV
As to the kind of experiment: Fluorescence-based CYP inhibition, CYP bactosomes. In kind it is in vitro ADME. To be noted: recombinantly expressed CYP bactosomes (EasyCYP), pH 7.4, probe 3-Cyano-7-Ethoxycoumarin (CEC), 25 μM, read-out: CYP Inhibition IC50 2C19. As to the method: as §1

In the next data set the target is T4, CYP2C9 (Homo sapiens, UniProt P11712).
T4 construct: purchased Cypex; host or cells: bacterial membranes (bactosomes)
T4 sequence (P11712 whole entry): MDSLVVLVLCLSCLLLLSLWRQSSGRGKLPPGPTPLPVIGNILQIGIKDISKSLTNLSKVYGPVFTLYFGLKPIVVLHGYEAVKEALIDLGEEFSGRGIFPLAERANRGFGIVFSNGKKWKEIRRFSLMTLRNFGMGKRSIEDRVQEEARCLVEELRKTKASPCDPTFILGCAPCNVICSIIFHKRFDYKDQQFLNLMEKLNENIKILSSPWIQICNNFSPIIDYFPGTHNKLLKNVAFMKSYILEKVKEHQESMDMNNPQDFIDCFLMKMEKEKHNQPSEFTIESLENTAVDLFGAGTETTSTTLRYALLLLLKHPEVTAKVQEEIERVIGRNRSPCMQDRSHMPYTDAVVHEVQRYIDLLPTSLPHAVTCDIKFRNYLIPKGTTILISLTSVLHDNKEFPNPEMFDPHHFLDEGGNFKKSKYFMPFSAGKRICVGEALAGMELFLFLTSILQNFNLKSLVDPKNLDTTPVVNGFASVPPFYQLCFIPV
As to the kind of experiment: Fluorescence-based CYP inhibition, CYP bactosomes. In kind it is in vitro ADME. To be noted: read-out: CYP Inhibition IC50 2C9. As to the method: as §1

A further data set has as its target T5, CYP2D6 (Homo sapiens, UniProt P10635).
T5 construct: purchased Cypex; host or cells: bacterial membranes (bactosomes)
As to the kind of experiment: Fluorescence-based CYP inhibition, CYP bactosomes. The data set is classed as in vitro ADME. To be noted: read-out: CYP Inhibition IC50 2D6. The protocol:
as §1

The next data set concerns the target T6, CYP3A4 (Homo sapiens, UniProt P08684).
T6 construct: purchased Cypex; host or cells: bacterial membranes (bactosomes)
As to the kind of experiment: Fluorescence-based CYP inhibition, CYP bactosomes. The data set is classed as in vitro ADME. To be noted: read-out: CYP Inhibition IC50 3A4. As to the method: as §1

T5 sequence (P10635 whole entry): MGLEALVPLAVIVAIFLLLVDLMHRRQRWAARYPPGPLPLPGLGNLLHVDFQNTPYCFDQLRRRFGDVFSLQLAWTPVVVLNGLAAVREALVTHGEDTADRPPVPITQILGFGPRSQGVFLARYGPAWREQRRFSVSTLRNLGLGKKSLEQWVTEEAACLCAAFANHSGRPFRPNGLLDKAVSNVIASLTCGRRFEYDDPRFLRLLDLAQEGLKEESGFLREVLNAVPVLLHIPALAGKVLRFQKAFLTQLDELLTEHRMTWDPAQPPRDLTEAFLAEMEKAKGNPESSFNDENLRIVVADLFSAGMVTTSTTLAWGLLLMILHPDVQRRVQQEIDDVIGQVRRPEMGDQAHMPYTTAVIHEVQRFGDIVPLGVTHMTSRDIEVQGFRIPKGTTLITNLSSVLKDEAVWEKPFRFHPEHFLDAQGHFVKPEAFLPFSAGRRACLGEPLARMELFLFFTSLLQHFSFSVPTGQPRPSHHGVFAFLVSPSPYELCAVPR
T6 sequence (P08684 whole entry): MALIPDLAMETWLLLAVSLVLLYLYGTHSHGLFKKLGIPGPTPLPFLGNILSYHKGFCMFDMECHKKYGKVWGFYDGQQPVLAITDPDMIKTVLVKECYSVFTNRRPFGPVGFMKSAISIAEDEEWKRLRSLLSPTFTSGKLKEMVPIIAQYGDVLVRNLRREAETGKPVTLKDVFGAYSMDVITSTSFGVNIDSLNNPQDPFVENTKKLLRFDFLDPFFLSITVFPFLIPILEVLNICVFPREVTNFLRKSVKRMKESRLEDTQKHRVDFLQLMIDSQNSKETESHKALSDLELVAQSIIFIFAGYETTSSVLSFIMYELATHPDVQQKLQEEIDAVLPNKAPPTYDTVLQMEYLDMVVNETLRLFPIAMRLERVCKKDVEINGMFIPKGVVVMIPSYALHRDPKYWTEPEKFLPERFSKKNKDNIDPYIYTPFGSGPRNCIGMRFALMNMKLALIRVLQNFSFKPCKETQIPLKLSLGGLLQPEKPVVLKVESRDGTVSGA
T1 sequence (P49862 30-253, species assumed): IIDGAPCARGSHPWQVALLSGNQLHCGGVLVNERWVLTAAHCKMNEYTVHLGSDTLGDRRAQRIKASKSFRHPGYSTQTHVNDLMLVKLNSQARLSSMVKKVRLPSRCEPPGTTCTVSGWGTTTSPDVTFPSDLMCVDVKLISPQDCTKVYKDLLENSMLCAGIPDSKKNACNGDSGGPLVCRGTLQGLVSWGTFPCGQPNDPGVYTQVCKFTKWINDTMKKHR

Regarding `CC[C@H](NC(=O)[C@H]1CN(c2ccc(C(=N)N)cc2)C(=O)O1)c1cccc2ccccc12` [Compound 32, (5R)‐3‐(4‐carbamimidoylphenyl)‐N‐((S)‐1‐(naphthalen‐1‐yl)propyl)‐2‐oxooxazolidine‐5‐carboxamide], the IC50 at KLK7 was more than 20 µM; at CYP1A2 it was more than 10 µM; on CYP2C9, more than 10 µM; at CYP2D6 it was more than 10 µM; on CYP3A4 it was 4.8 µM. Further, at CYP2C19, the IC50 at 10 min is 7.9 µM.
